Assay [1] has as its system carboxyl terminal fragment AβPP (C99). In words: AD-related markers in Tg2576 neurons: APP processing (C99). Conditions: Mus musculus, Neuron, 48 h, treated two days, EC50 = 50% decrease in C99 over basal. Type of assay: cell-based. Here is the method: The effects of the compounds on amyloid pathology were analysed in primary cultures (15 DIV) of neurons derived from the hippocampus and cortex of Tg2576 mouse embryos. Tg2576 mice express the human 695-aa isoform of APP (hAPP) containing the Swedish double mutation, which favours Aβ production. Neurons were treated for two days and collected at day 3, 24 h after the last treatment. First it was analysed the effect of the compounds on hAPP processing by the amyloidogenic pathway by measuring the carboxyl terminal fragment AβPP (C99), which is the precursor of Aβ42. In this case the reported EC50, Table 2 (below), means a 50% decrease in C99 levels over basal (saline, no treatment).
To analyze APP-derived fragments and p-tau levels in primary neuronal cultures, cells were collected in a buffer containing SDS (2%), Tris-HCl (10 mM, pH 7.4), protease inhibitors (1 mM PMSF and Complete Protease Inhibitor Cocktail: Roche Diagnostics) and phosphatase inhibitors (0.1 mM Na3VO4 and 1 mM NaF). The homogenates were sonicated for 2 min and centrifuged at 100,000×g for 1 h. Aliquots of the supernatant were frozen at −80° C. and their protein concentrations determined by the Bradford method using the Bio-Rad protein assay (Bio-Rad, Hercules, Calif., USA). Aliquots of the protein extracts were mixed with XT sample buffer plus XT reducing agent (Bio-Rad, Hercules, Calif., USA) and boiled for 5 min. Proteins were separated in a Criterion precast Bis-Tris 4-12% gradient precast gel (Bio-Rad, Hercules, Calif., USA) and transferred to a PVDF membrane with a removal rating of […] (Hybond LFP, Amersham Biosciences, Little Chalfont, UK). The membranes were blocked with 5% milk, 0.05% Tween-20 in PBS or TBS, and incubated overnight with the following primary antibodies in the corresponding buffers: mouse monoclonal anti-phosphotau AT8 (Pierce Biotechnology Inc., Rockford), mouse monoclonal anti-tau (clone Tau46, Sigma-Aldrich, St Louis, Mo.), 6E10 mouse monoclonal antibody (amino acids 1-17 of Aβ peptide; Millipore), mouse monoclonal anti-β-actin, mouse monoclonal anti-α-tubulin and mouse monoclonal anti-Acetylated-tubulin (Sigma). All antibodies were used at dilutions of 1:1,000 except for the mouse monoclonal anti-β-actin, anti-Acetylated-tubulin and anti-tubulin (1:50,000). Following two washes in TBS/Tween20 and one wash in TBS alone, immunolabelled protein bands were detected using HRP-conjugated anti-rabbit or anti-mouse antibodies (diluted 1:5,000: Santa Cruz). Binding was visualised by enhanced chemiluminescence (ECL, GE Healthcare Bioscience, Buckinghamshire, UK) and autoradiographic exposure to Hyperfilm ECL (GE Healthcare Bioscience), using Quantity One™ software v.4.6.3 (Bio-Rad) for quantification.

In assay [2] the test system is acetylated histone 3 at Lys9 (AcH3K9). Description: HDAC activity in wild type primary neurons (Western blot AcH3K9). Conditions: Mus musculus, Neuron, 0.5 h, 30 min, EC50 = 50% increase in AcH3K9 over basal, read-out: AcH3 (EC50). Type of assay: cell-based, mouse. On the technique in general: A western blot detects proteins with antibodies after separation by electrophoresis.

The next assay deals with AcH3. Description: In-vivo activity, hippocampus of wild type mice: AcH3. More on the design: species or system mouse. Conditions: i.p. 40 mg/kg, hippocampus one hour later. The method, then:
To determine the ability of the compounds to inhibit HDAC and PDE in the brain, the compound was administered to wild type mice by i.p. at a dose of 40 mg/kg (n=3). Another group of animals received the vehicle (1/1/8, v:v:v, DMSO/Tween 20/saline). One hour later, mice were sacrificed by cervical dislocation and their hippocampus was quickly dissected from the brains.
Total tissue homogenates were obtained by homogenizing the hippocampus in a cold lysis buffer with protease inhibitors (0.2 M NaCl, 0.1 M HEPES, 10% glycerol, 200 mM NaF, 2 mM Na4P2O7, 5 mM EDTA, 1 mM EGTA, 2 mM DTT, 0.5 mM PMSF, 1 mM Na3VO4 and Complete Protease Inhibitor Cocktail, Roche Diagnostics). The homogenate was then centrifuged at 14,000×g at 4° C. for 20 min and the supernatant aliquoted and stored at −80° C. Total protein concentrations were determined using the BioRad Bradford protein assay (BioRad Laboratories). Protein samples were analyzed as described in the “in vitro” section.

The subject of another assay is acetylated-α-tubulin. In words: AD-related markers in Tg2576 neurons: acetylated-tubulin. It counts as cell-based. Conditions: Mus musculus, Neuron, 48 h, treated two days, EC50 = 50% increase in acetylated-α-tubulin over basal, read-out: AcTub (EC50).

Molecules are shown by their SMILES.

On to `CCCc1nn(C)c2c(=O)[nH]c(-c3cc(S(=O)(=O)N4CCN(c5ncc(C(=O)NO)cn5)CC4)ccc3OCC)nc12` [Example 1-06, 2-(4-[3-(6,7-Dihydro-1-methyl-7-oxo-3-propyl-1H-pyrazolo[4,3-d]pyrimidin-5-yl)-4-ethoxyphenylsulfonyl]piperazin-1-yl)-N-hydroxypyrimidine-5-carboxamide], for which the EC50 (in assay [1]; in assay [2]; with acetylated-α-tubulin) was 0.01 to 1 µM in each case. In the assay on AcH3, the “AcH3, increment in biological response vs basal” value was “+++ (basal×2≦(+++)<basal×3)”.
For the compound `CCCc1nn(C)c2c(=O)[nH]c(-c3cc(Cc4ccc(C(=O)NO)cc4)ccc3OCC)nc12` [Example 1-15, 4-[[4-ethoxy-3-(1-methyl-7-oxo-3-propyl-6H-pyrazolo[4,3-d]pyrimidin-5-yl)phenyl]methyl]benzenecarbohydroxamic acid], the EC50 (in assay [1]; in assay [2]; in the assay with acetylated-α-tubulin) was 0.01 to 1 µM in each case. Moreover, the “AcH3, increment in biological response vs basal” value in the assay with AcH3 is recorded as “+ (basal×1 means no increment (+))”.
On to `CCCc1nn(C)c2c(=O)[nH]c(-c3cc(Cc4ccc(C(=O)NO)s4)ccc3OCC)nc12` [Example 1-16], for which the EC50 (in assay [1]; in assay [2]; in the assay on acetylated-α-tubulin) was 0.01 to 1 µM in each case. Further, in the assay with AcH3, the “AcH3, increment in biological response vs basal” value is “++ (basal×1≦(++)<basal×2)”.
Regarding `CCCc1nn(C)c2c(=O)[nH]c(-c3cc(CC4CC(C(=O)NO)C4)ccc3OCC)nc12` (racemic) [Example 1-19, 3-[[4-ethoxy-3-(1-methyl-7-oxo-3-propyl-6H-pyrazolo[4,3-d]pyrimidin-5-yl)phenyl]methyl]cyclobutanecarbohydroxamic acid], the EC50 (in assay [1]; in assay [2]; with acetylated-α-tubulin) was 0.01 to 1 µM in each case. In the assay with AcH3, the “AcH3, increment in biological response vs basal” value is reported as “+++ (basal×2≦(+++)<basal×3)”.

The values above are taken from US9573956B2, “Compounds as dual inhibitors of phosphodiesterases and histone deacetylases” (FUNDACIÓN PARA LA INVESTIGACIÓN MÉDICA APLICADA, priority 2013, dated 2017).
